This note sets out measurements from publication PMC12066977, “Alkyl Tail Variation on Chalcone‐Based Quaternary Pyridinium Salts as Rule‐of‐Thumb for Antimicrobial Activity” (Archiv Der Pharmazie, 2025).

The nature of data set [1]: Cell viability and proliferation assay (WST8/CCK-8). The note with it: African green monkey, Vero cells (ATCC CCL-81), 48 h treatment, CCK-8; read-out: CC50 [95% CI] Vero cells. In kind it is cell-based. The method, then: Vero cell line (ATCC CCL‐81) was selected as a model system to investigate the overall effect of chalcones on non‐malignant mammalian cells. […] For experiments, cells were seeded into 96‐well plates at 10^4 cells/well and incubated at 37°C for 24 h. Following washes with PBS, the cell monolayer was incubated with 100 µL of medium containing the twofold serial dilutions of the compounds. Both untreated cells and cells incubated with medium containing solvent dilutions were included in each experiment as controls. The cell viability was assessed by a WST8‐based assay according to the manufacturer's instructions (CCK‐8, Cell Counting Kit‐8, Dojindo Molecular Technologies, Rockville, MD, USA). After 48 h of incubation, culture medium was removed from each well, the monolayer was washed with PBS, and 100 µL of fresh medium containing 10 µL of CCK‐8 solution was added. Following a 2 h incubation at 37°C, the OD450nm was read, and data were expressed as the percentage of cell viability relative to the untreated controls. The CC50 was obtained on the corresponding dose–response curves generated as previously reported for IC50 values. Experiments were carried out in triplicate in three biological replicates.

The subject of data set [2] is human red blood cells (hRBCs). The experiment in a line: Hemolytic activity assay. In kind it is cell-based. Particulars: 25 µM, 90 min, 37°C. As to the method:
The hemolytic activity of some selected compounds was evaluated as the amount of hemoglobin released by the disruption of human red blood cells (hRBCs). For the experiments, fresh hRBCs were collected by centrifugation at 1500g for 10 min, washed three times with PBS, and resuspended to a final concentration of 4% w/v hRBCs in PBS. Then, 100 µL of hRBCs suspension and an equal volume of the twofold dilutions of the antimicrobial peptides were mixed in a 96‐well plate and incubated for 90 min at 37°C. After centrifugation at 1000g for 5 min, the supernatants were transferred into a clear 96‐well plate, and OD405nm was read. Untreated hRBCs (incubated with PBS) and hRBCs incubated with 1% Triton X‐100 were employed as negative and positive controls, respectively. The hemolysis percentage was calculated as [OD405nm (sample) − OD4_05nm (negative control)]/[OD405nm (positive control) − OD405nm (negative control)] × 100. Minimal hemolytic concentrations (MHCs) were defined as the compound concentration causing 10% hemolysis. Three independent experiments were performed in triplicate.

Take `C#CCOc1ccc(C(=O)/C=C/c2ccc[n+](CCCCCCCCCCCCCC)c2)c(OCC#C)c1.[Br-]` [Compound 6, (E)‐3‐{3‐[2,4‐Bis(prop‐2‐yn‐1‐yloxy)phenyl]‐3‐oxoprop‐1‐en‐1‐yl}‐1‐tetradecylpyridin‐1‐ium bromide]: the CC50 at 48 h in data set [1] was 6.16 µM. The hemolytic activity in data set [2] is given as 88.7%.
